Results from US11059795B2, “Androgen receptor modulators and methods for their use” (ESSA Pharma, Inc., priority 2018, dated 2021).
pIC50: −log10 of the molar value.

Legend:
androgen receptor (AR) = molecular target: T1, androgen receptor (AR) (Homo sapiens, UniProt P10275, T878A); test: Androgen-induced PSA (6.1 kb)-luciferase reporter assay in LNCaP cells; format: cell-based; conditions: LNCaP cells transfected with PSA (6.1 kb)-luciferase reporter, R1881 1 nM, 24 h; read-out: PSA-Luc IC50 Range
T1 construct: LNCaP cells were transiently transfected with the PSA (6.1 kb)-luciferase reporter for 24 h; endogenous in cells; host or cells: LNCaP
T1 sequence (P10275 1-920 T878A): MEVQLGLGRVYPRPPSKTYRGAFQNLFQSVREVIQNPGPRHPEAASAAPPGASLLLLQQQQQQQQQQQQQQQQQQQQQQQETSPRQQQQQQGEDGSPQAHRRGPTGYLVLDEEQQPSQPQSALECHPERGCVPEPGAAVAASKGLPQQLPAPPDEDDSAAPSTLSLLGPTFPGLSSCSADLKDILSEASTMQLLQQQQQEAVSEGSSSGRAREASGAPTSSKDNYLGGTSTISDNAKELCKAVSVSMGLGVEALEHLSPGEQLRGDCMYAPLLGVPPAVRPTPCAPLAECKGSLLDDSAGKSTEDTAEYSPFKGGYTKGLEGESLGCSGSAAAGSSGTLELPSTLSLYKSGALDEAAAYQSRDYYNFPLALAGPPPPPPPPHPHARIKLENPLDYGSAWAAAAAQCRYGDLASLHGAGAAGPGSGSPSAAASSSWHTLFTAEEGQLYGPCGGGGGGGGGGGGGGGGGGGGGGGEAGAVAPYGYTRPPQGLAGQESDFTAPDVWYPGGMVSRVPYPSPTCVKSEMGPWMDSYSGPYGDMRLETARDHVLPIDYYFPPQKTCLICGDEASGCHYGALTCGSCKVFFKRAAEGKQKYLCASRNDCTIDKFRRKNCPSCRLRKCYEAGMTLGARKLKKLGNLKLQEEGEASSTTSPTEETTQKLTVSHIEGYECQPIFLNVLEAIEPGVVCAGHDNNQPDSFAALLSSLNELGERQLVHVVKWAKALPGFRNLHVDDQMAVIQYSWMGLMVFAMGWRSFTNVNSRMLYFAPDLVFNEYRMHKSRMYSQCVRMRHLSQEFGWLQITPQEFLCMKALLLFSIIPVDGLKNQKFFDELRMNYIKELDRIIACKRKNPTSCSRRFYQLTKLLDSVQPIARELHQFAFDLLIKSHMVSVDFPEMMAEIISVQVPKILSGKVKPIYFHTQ
Summary of the method: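 Read-out is firefly luminescence (10 s) in LNCaP lysates, normalized to protein, from an ARE-containing PSA (6.1 kb)-luciferase reporter driven by androgen.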

[1] = Microsomal stability assay, mouse liver microsomes; format: in vitro ADME; conditions: mouse, liver microsomes, pH 7.4, mouse liver microsomes, 1 μM compound, 0.5 mg/mL protein, 37° C.; read-out: MLM +30/− NADPH: Clint (μL/min/mg protein)
Summary of the method: (§1)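 Compound at 1 μM was incubated at 37° C with 0.5 mg/mL liver microsomes and 1 mM NADPH and/or 1 mM UDPGA (with alamethicin) in 100 mM potassium phosphate pH 7.4, 3 mM MgCl2. Samples were taken at 0, 15, 30 and 60 min and measured by LC/MS/MS. t½ came from compound loss relative to 0 min, and Clint was scaled with 45 mg microsomal protein/g liver.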

[2] = In vivo pharmacokinetics in plasma after oral gavage (PO) in male CD-1 mice; conditions: plasma, single PO dose 5 mg/kg, male CD-1 mice; for bioavailability / AUC(0-t) / Cmax / Tmax / half-life: mouse; for bioavailability: oral availability; for half-life: read-out: t½ (converted)
Method: The purpose of this study is to determine the pharmacokinetics of the tested compounds in plasma, following oral gavage administration (PO) to male CD-1 mice.
Animal Husbandry: Animals were group housed during acclimation and the study. The animal room environment were controlled (target conditions: temperature 18 to 26° C., relative humidity 30 to 70%, 12 hours artificial light and 12 hours dark). Temperature and relative humidity were monitored daily. Animals were fasted at least 12 hours prior to the administration. All animals had access to Certified Rodent Diet ad libitum 4 hours post dosing.
Dose Formulation: prepared 85-100 uL of a stock solution of representative compounds of the disclosure in DMSO at 50 mM; 1.5% v/v of Tween 80 were added and mixed gently; 95.5% v/v saline was added gently to the organic phase. The solution was mixed slowly by reverse pipetting to get a clear solution.
Dose Administration: the dose formulations were administered via oral gavage per facility SOPs. The dose volume were determined by the animals' body weight collected on the morning of dosing day
Sample Collection: blood collection (about 0.05 mL per time point) was performed from saphenous vein of each animal into polypropylene tubes at each timepoints (0, 0.25, 0.5, 1, 2, 4, 8, 12, and 24 hr). All blood samples were transferred into pre-chilled tubes containing 2 μL of K2-EDTA (0.5M) and placed on wet ice until centrifugation. Each collected blood sample was in the wet-ice before centrifugation. Each collected blood was under centrifugation for 15 minutes at 4° C. and 3000 g for plasma collection. Plasma samples were stored in polypropylene tubes, quickly frozen over dry ice and kept at −70±10° C. until LC/MS/MS analysis.
Bioanalytical analysis: A LC-MS/MS method for the quantitative determination of tested compound in biological matrix were developed under non-GLP compliance. A calibration curve with at least 7 non-zero calibration standards were applied for the method including LLOQ.
Plasma concentration versus time data were analyzed by non-compartmental approaches using the Phoenix WinNonlin 6.3 software program. Cl, Vdss, C0, Cmax, Tmax, T^1/2, AUC(0-t), AUC(0-inf), MRT(0-t), MRT(0-inf), % F (oral availability) and graphs of plasma concentration versus time profile were reported.

[3] = Microsomal stability assay, human liver microsomes; format: in vitro ADME; conditions: pH 7.4, 1 μM compound, 0.5 mg/mL protein, 37° C., read-out: HLM +/− NADPH: Clint (μL/min/mg protein)
Summary of the method: as §1

LNCaP cells = test: Cell proliferation/viability assay, LNCaP (Alamar blue); format: cell-based; conditions: Homo sapiens, AR specific proliferation with 0.1 nM R1881, read-out: Cellular Proliferation/Viability IC50 (μM) LNCaP
Method: (§2) Cell proliferation/viability was measured in LNCaP and PC3 cells with Alamar blue, and proliferation was measured in LN-CaP95 cells with BrdU incorporation. In LNCaP cells, AR specific proliferation is calculated by measuring the difference between control cells treated with or without 0.1 nM R1881.

PC3 cells = test: Cell proliferation/viability assay, PC3 (Alamar blue); format: cell-based; conditions: Homo sapiens; PC-3, Alamar blue; read-out: Cellular Proliferation/Viability IC50 (μM) PC-3
Method: as §2

[4] = molecular target: T2, LBD of estrogen receptor-α (ERα) fused to DBD of GAL4 (Homo sapiens, UniProt P03372); test: LBD-expressing reporter assay (GeneBLAzer), ERα LBD; format: cell-based; conditions: inhibition of maximal activity attained with agonist; read-out: Steroid Receptor LBD IC50 (μM) ERα
T2 sequence (P03372 311-547 limits assumed): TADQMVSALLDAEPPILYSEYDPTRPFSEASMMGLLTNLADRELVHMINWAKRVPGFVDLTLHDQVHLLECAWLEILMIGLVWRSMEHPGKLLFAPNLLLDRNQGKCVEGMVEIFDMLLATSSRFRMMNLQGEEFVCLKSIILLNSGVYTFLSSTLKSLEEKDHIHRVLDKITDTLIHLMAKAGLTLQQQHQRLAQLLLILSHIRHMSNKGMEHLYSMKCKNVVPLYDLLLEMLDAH
Description: (§3) This assay uses cells that stably express a chimera fusion protein comprising the LBD of a steroid hormone receptor fused to the DNA-binding domain (DBD) of GAL4 along with beta-lactamase reporter under transcriptional control of an upstream activator sequence (UAS). When agonist binds to the LBD of the GAL4 (DBD)-steroid hormone (LBD) chimera fusion protein, the protein binds to the UAS, resulting in expression of beta-lactamase. LBDs of androgen receptor (AR), progesterone receptor-beta (PRβ), glucocorticoid receptor (GR), estrogen receptor-α (ERα), and estrogen receptor-β (ERβ) were tested and IC50s calculated for inhibiting maximal activity attained with agonist.

LN-CaP95 cells = test: Cell proliferation assay, LNCaP95 (BrdU incorporation); format: cell-based; conditions: LNCaP-95, read-out: Cellular Proliferation/Viability IC50 (μM) LNCaP95
Method: as §2

[5] = molecular target: T3, LBD of progesterone receptor-beta (PRβ) fused to DBD of GAL4 (Homo sapiens, UniProt P06401); test: LBD-expressing reporter assay (GeneBLAzer), PR LBD; format: cell-based; conditions: inhibition of maximal activity attained with agonist; read-out: Steroid Receptor LBD IC50 (μM) PR
T3 sequence (P06401 679-913 limits assumed): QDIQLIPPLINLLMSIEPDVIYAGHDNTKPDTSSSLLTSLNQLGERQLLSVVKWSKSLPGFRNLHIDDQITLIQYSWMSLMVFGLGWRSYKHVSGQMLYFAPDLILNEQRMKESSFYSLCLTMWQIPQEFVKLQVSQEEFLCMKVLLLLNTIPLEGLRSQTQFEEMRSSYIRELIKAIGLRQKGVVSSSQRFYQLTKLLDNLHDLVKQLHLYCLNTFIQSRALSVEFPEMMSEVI
Description: as §3

[6] = molecular target: T4, LBD of glucocorticoid receptor (GR) fused to DBD of GAL4 (Homo sapiens, UniProt P04150); test: LBD-expressing reporter assay (GeneBLAzer), GR LBD; format: cell-based; conditions: inhibition of maximal activity attained with agonist; read-out: Steroid Receptor LBD IC50 (μM) GR
T4 sequence (P04150 524-758 limits assumed): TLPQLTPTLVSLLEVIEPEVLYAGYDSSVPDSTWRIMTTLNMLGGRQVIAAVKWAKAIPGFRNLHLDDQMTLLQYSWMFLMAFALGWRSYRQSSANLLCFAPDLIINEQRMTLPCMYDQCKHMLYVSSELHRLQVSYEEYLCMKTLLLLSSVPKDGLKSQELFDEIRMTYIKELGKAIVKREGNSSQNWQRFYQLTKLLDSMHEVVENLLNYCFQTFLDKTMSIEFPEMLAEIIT
Description: as §3

[7] = molecular target: LBD of estrogen receptor-β (ERβ) fused to DBD of GAL4 (Homo sapiens, UniProt Q92731); test: LBD-expressing reporter assay (GeneBLAzer), ERβ LBD; format: cell-based; conditions: inhibition of maximal activity attained with agonist; read-out: Steroid Receptor LBD IC50 (μM) ERβ
Description: as §3, with “To assess if the representative compounds (Compounds A13, A28, A38, A74, A93, and A109) compete with ligand (agonist) for the ligand-binding domain (LBD) of steroid hormone receptors (which would be off-target), the GeneBLAzer assay was employed (Thermo Fisher). This” for “This”

[8] = Hepatocyte stability assay, mouse hepatocytes; format: in vitro ADME; conditions: mouse, cryopreserved hepatocytes, 1 μM compound, 0.5 million cells/mL, 37° C., read-out: MH +/− NADPH: Clint (μL/min/million cells)
Summary of the method: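 Cryopreserved rat, human or mouse hepatocytes at 0.5 million cells/mL in DMEM with 1 μM compound, 37° C, sampled at 0, 60, 120 and 180 min and quenched with acetonitrile/formic acid. Parent loss vs 0-min by LC/MS/MS gave t½, and Clint = 0.693/t½ × mL incubation/million cells.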

Sequence of LBD of estrogen receptor-β (ERβ) fused to DBD of GAL4 (Q92731 264-498 limits assumed): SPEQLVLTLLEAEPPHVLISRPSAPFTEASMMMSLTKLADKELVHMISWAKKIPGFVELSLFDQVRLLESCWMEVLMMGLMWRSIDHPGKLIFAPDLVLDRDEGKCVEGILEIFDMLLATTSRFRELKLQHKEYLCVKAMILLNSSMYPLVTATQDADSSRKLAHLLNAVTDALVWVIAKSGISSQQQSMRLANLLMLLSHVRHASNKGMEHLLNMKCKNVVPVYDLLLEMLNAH

SMILES	pIC50 (androgen receptor (AR))	microsomal CLint at 1 μM [1] [µL/min/mg]	bioavailability [2] [%]	AUC(0-t) [2] [ng·h/mL]	Cmax [2] [ng/mL]	Tmax [2] [h]	half-life [2] [h]	AUC/D [2] [kg·ng·h/mL/mg]	microsomal CLint at 1 μM [3] [µL/min/mg]	IC50 (LNCaP cells) [µM]	IC50 (PC3 cells) [µM]	IC50 [4] [µM]	IC50 (LN-CaP95 cells) [µM]	IC50 [5] [µM]	IC50 [6] [µM]	IC50 [7] [µM]	hepatocyte CLint at 1 μM [8] [µL/min/1e6 cells]
CC(Oc1ccc(C(C)(C)c2cc(Cl)c(OCCCl)c(Cl)c2)cc1)c1ocnc1S(C)(=O)=O (centres unmarked) [Compound A35, 5-(1-(4-(2-(3,5-Dichloro-4-(2-chloroethoxy)phenyl)propan-2-yl)phenoxy)ethyl)-4-(methylsulfonyl)oxazole]	5.70 to 6.30	12 to 48	49.6	2420	819	0.5	4	483.0	< 12								
CC(C)(c1ccc(OC[C@H](O)CO)cc1)c1ccc(OC[C@H](O)CCl)cc1 [EPI-002, reference compound]										9	> 10	> 10	~20	> 10	> 10	> 10	
CC(C)(c1ccc(OCc2ncc(S(C)(=O)=O)o2)cc1)c1cc(Cl)c(OCCCl)c(Cl)c1 [Compound A66]	5.70 to 6.30	< 12	71.4	11900	1610	0.8	12	2385.4	< 12								

Other lines, results leading:

pIC50 (androgen receptor (AR))	microsomal CLint at 1 μM [1] [µL/min/mg]	bioavailability [2] [%]	AUC(0-t) [2] [ng·h/mL]	Cmax [2] [ng/mL]	Tmax [2] [h]	half-life [2] [h]	AUC/D [2] [kg·ng·h/mL/mg]	microsomal CLint at 1 μM [3] [µL/min/mg]	IC50 (LNCaP cells) [µM]	IC50 (PC3 cells) [µM]	IC50 [4] [µM]	IC50 (LN-CaP95 cells) [µM]	IC50 [5] [µM]	IC50 [6] [µM]	IC50 [7] [µM]	hepatocyte CLint at 1 μM [8] [µL/min/1e6 cells]	SMILES
> 6.30	12 to 48	60.6	5190	2010	0.5	2.5	1037.3	12 to 48									Cc1cc(C(C)(C)c2ccc(OCc3ocnc3S(C)(=O)=O)cc2)cc(C#N)c1OCCCl [Compound A29, 2-(2-chloroethoxy)-3-methyl-5-(2-(4-((4-(methylsulfonyl)oxazol-5-yl)methoxy)phenyl)propan-2-yl)benzonitrile]
> 6.30	< 12							< 12								< 4	CC(C)(c1ccc(OCc2cnc(NS(C)(=O)=O)nc2)cc1)c1cc(Cl)c(OCCCl)c(C#N)c1 [Compound A204]
